Active and inactive are the calls of the source.
How the values were obtained:
Estrogen receptor beta [1] = target: T1, Estrogen receptor beta (Homo sapiens, UniProt Q92731);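 further: recombinant ER-beta bound to coactivator SRC1 peptide in presence of estradiol agonist; inhibitors block coactivator peptide binding and lower the FRET signal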
Protein Tat = Protein Tat (Human immunodeficiency virus type 1 group M subtype B (isolate HXB2)(HIV-1), UniProt P04608); format: functional;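 further: tat binding to TAR RNA read out by fluorescence polarization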
[2] = target: Ubiquitin carboxyl-terminal hydrolase BAP1 (Homo sapiens, UniProt Q92560); assay: BAP1 deubiquitinase inhibitors, dose response, biochemical (AID 714); format: functional
Estrogen receptor beta [3] = target: T1, Estrogen receptor beta; assay: ERβ–SRC-3 coactivator interaction inhibitors, confirmation, orthogonal assay, biochemical, ELISA, streptavidin-HRP readout (AID 1060)
[4] = Fluorescence Cell-Based Dose Response to Identify Inhibitors of Thrombin Receptor-Activating Peptide SFLLRN-Mediated P-Selectin Induction on Platelets. [Related pubchem assays: 1663 (Primary HTS), 1889 (retest at dose ), 1891 (counterscreen), 1678 (Project Summary)]; format: functional
[5] = target: Luciferin 4-monooxygenase (Photinus pyralis, UniProt P08659); assay: firefly luciferase enzyme inhibitors, dose response, biochemical, luminescence (AID 1891)
[6] = Luminescence Cell-Based Dose Confirmation HTS to Identify Inhibitors of Platelet Dense Granule Release. [Related pubchem assays: 1663 (Primary HTS), 1678 (Summary of Project)]; format: functional
Heat shock protein HSP90 = Heat shock protein HSP90 (Homo sapiens, UniProt P07900+P08238); assay: tumor Hsp90 inhibitor potency, dose response (AID 712); format: functional
Cytochrome P450 3A4 = Cytochrome P450 3A4 (Homo sapiens, UniProt P08684);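 further: CYP3A4 tested as one member of a cytochrome P450 panel screen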
[7] = HepG2 cell cytotoxicity, dose response, cytotoxicity control, cherry-picked samples (AID 1159577); format: functional, cell-based
[8] = P. falciparum Dd2 growth inhibitors, dose response, SYBR Green, dry powder samples, set 9 (AID 1159568); format: functional, cell-based
[9] = P. falciparum Dd2 growth inhibitors, dose response, SYBR Green, cherry-picked samples (AID 1159567); format: functional, cell-based
[10] = P. falciparum Dd2 growth inhibitors, dose response, SYBR Green, dry powder samples, set 4 (AID 1159572); format: functional, cell-based
[11] = P. falciparum 3D7-ScDHODH growth inhibitors, dose response, SYBR Green, dry powder samples (AID 1159570); format: functional, cell-based;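 further: parasite growth measured after 72 hours of compound exposure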
[12] = HepG2 cell cytotoxicity, dose response, cytotoxicity control, plate reader, dry powder samples (AID 1159569); format: functional, cell-based;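 further: inhibitor potency with signal falling toward the positive control level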
[13] = P. falciparum Dd2 blood-stage growth inhibition, dose response, SYBR Green fluorescence, erythrocytes, dry powder, set 2 (AID 1159574); format: functional, cell-based
[14] = P. falciparum Dd2 growth inhibitors, dose response, SYBR Green, dry powder samples (AID 1159566); format: functional, cell-based;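 further: potency for growth inhibition with lower SYBR green DNA signal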
[15] = P. falciparum ATP4 D1247Y mutant growth inhibitors, dose response, NITD609-resistant line, SYBR Green, dry powder (AID 1159571); format: functional, cell-based;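 further: parasites synchronized at ring stage by sorbitol before testing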
[16] = half-maximal inhibitory concentration for glucagon-like peptide-1 release, STC-1 cell line, dose-response (AID 1117345); format: functional, cell-based
[17] = Glucagon-like peptide 1 release potency, NCI-H716 cell line, dose-response, half-maximal inhibitory concentration (AID 1117344); format: functional, cell-based

T1 sequence (Q92731 whole entry): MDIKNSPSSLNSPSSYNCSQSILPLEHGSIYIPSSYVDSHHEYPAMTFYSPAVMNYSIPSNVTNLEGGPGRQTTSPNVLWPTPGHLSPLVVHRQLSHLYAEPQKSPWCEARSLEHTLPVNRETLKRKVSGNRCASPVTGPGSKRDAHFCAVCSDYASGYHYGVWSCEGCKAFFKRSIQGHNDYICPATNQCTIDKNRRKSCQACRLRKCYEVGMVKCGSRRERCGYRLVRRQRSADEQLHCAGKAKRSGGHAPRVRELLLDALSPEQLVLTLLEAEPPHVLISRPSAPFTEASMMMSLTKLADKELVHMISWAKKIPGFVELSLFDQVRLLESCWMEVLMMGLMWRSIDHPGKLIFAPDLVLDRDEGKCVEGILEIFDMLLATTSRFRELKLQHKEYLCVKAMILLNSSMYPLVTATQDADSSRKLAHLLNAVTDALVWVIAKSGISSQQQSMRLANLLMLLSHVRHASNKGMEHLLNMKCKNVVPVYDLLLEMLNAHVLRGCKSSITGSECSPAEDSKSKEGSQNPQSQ
Sequence of Luciferin 4-monooxygenase (P08659 whole entry): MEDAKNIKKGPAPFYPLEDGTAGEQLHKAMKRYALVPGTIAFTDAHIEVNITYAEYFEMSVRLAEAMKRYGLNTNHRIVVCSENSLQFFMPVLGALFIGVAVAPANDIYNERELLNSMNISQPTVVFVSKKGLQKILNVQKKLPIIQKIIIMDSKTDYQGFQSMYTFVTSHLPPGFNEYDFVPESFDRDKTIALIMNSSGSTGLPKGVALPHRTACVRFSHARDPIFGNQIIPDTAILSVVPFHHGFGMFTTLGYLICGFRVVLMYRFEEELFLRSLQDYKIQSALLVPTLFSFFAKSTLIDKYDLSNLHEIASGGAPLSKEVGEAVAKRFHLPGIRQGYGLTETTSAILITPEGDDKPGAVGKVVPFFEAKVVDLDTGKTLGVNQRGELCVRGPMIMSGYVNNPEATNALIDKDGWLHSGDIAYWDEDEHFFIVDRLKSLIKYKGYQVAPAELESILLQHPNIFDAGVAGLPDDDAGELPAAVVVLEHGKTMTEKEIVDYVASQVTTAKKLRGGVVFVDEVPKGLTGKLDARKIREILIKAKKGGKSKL
Sequence of Ubiquitin carboxyl-terminal hydrolase BAP1 (Q92560 whole entry): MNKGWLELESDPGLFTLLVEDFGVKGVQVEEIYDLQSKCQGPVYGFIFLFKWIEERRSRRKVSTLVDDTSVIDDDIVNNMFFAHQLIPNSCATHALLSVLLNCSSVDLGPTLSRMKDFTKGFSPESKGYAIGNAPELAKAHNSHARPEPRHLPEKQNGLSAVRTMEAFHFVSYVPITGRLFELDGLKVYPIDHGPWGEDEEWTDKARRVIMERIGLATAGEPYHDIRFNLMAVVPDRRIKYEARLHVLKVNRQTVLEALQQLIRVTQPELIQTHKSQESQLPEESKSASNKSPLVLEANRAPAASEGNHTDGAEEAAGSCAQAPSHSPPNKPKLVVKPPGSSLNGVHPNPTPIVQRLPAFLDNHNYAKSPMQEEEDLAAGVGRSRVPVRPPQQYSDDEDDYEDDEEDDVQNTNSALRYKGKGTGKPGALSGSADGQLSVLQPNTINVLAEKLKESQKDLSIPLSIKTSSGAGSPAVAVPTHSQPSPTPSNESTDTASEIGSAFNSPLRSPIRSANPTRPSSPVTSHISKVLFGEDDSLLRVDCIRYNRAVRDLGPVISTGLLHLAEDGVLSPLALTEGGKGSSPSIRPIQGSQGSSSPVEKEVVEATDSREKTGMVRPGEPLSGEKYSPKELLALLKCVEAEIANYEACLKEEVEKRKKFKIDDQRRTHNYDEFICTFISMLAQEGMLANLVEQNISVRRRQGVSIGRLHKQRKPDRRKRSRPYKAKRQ
Sequence of Protein Tat (P04608 whole entry): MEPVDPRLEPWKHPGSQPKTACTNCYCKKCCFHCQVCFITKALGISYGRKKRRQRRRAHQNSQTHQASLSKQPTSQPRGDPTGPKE
Sequence of Cytochrome P450 3A4 (P08684 whole entry): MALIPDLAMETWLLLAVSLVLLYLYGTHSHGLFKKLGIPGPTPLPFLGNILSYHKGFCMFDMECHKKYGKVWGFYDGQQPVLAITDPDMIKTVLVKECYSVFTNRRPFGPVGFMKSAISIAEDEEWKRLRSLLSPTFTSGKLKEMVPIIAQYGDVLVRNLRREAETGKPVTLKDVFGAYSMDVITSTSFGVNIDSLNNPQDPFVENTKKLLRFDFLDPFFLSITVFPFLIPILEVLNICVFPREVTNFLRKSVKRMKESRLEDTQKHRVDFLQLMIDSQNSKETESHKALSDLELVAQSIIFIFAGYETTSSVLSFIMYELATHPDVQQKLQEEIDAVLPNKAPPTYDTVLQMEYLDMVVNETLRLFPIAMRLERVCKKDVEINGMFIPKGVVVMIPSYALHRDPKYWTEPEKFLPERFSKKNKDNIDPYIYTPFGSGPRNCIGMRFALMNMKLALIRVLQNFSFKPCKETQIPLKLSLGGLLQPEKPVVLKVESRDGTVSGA

With `Cc1ccc(-c2nc3s/c(=C\c4ccco4)c(=O)n3n2)cc1` the IC50 (Estrogen receptor beta [1]) was > 50 µM (not active), the IC50 (Protein Tat) was > 100 µM (active) and the IC50 [2] was 22.6 µM (active). The IC50 (Estrogen receptor beta [3]) was > 50 µM (not active).
In the case of `CCC(CC)=N/N=C/c1c(O)n(CC)c2cc(C3=NNC(=O)CC3)ccc12`, the EC50 [4] is reported as < 0.3 µM (active), the EC50 [5] is reported as > 112 µM (not active) and the EC50 [6] is reported as 2.71 µM (active).
With `CN(c1ccccc1)c1ccc(/C=c2\s/c(=C(/C#N)C(=O)C(C)(C)C)n(Cc3ccco3)c2=O)cc1` the IC50 (Heat shock protein HSP90) was 13.4314 µM and the AC50 (Cytochrome P450 3A4) was 6.31 µM (inconclusive).
For `COc1ccccc1NC(=O)N1C[C@@H]2N[C@H](C1)[C@@H]2c1ccc(/C=C/c2ccccc2)cc1`, the AC50 [7] was 9.74 µM (active), the AC50 [8] was 8.73 µM (active) and the AC50 [9] was 1.96 µM (active).
With `CCC(=O)N1CCC2(CC1)CN(C(C)=O)[C@@H](CO)c1[nH]c3cc(OC)ccc3c12` the AC50 [10] was 20.1 µM (active).
With `COc1ccc(S(=O)(=O)N(C)C[C@@H]2OCc3ccccc3-c3c(n(C)c4ccccc34)C(=O)N([C@@H](C)CO)C[C@@H]2C)cc1` the AC50 [11] was 0.126 µM (active), the AC50 [9] was 0.689 µM (active) and the AC50 [12] was 84.3 µM (active). For the same compound, the AC50 [13] was 0.853 µM (active), the AC50 [14] was 0.0794 µM (active) and the AC50 [15] was 0.115 µM (active).
With `Cc1cc(O)c(C(C)C)cc1Cl` [CHLOROTHYMOL] the IC50 [16] was 14.1 µM (inactive) and the IC50 [17] was 26.5 µM (inactive).

From ChEMBL document CHEMBL1201862, “PubChem BioAssay data set” (2004)
